The target of one experiment is T1, A2 receptor (Homo sapiens, UniProt P29274).
T1 construct: human platetlet membranes; from tissue; host or cells: human platelet membranes
In words: antagonism of NECA-induced stimulation of adenylate cyclase activity in human platelet membranes. It is filed as biochemical. As to the method: (§1) Measurements of the potencies of the xanthines as antagonists of NECA-induced stimulation of adenylate cyclase activity in human platetlet membranes and as inhibitors of [^3 H]PIA binding to rat cerebral cortex membranes were carried out as reported previously.

The target of another experiment is T2, A1 receptor (Rattus norvegicus, UniProt P25099).
T2 construct: rat cerebral cortex membranes; from tissue; host or cells: rat cerebral cortex membranes
T2 sequence (P25099 1-326): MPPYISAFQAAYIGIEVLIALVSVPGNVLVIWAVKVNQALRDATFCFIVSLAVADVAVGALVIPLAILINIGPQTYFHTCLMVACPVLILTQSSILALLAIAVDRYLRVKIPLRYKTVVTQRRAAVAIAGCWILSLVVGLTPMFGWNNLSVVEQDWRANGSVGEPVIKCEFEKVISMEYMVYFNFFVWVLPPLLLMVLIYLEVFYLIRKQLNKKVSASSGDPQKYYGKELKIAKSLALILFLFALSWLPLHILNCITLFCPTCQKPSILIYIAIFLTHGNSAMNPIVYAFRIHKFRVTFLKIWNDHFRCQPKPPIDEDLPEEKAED
Kind of experiment: inhibition of [3H]PIA binding to rat cerebral cortex membranes. On the procedure: as §1

Another experiment has as its target T3, A1 adenosine receptors (Rattus norvegicus, UniProt P25099).
T3 construct: rat cerebral cortex membranes; from tissue; host or cells: rat cerebral cortex membranes
T3 sequence (P25099 1-326): T2 sequence (P25099 1-326)
In words: membrane binding assay at A1 adenosine receptors (Tables 1 and 2). The text has this: Table 2 lists prodrugs (including Routes A and B of FIG. 2) and chemical intermediates, based on xanthine and adenosine functionalized congener and the method of synthesis. The potency of each compound at A1 adenosine receptors is indicated by the Ki (inverse relationship to potency) in a membrane binding assay.

The mark [1] stands for this setting: antagonism of NECA-stimulated adenylate cyclase, human platelet membranes, means with 95% confidence limits from 3 experiments, read-out: A2 receptor KB.
Setting [2] is: [3H]PIA, rat cerebral cortex membranes, means from two experiments, read-out: A1 receptor Ki.
Where [3] appears, read: Table 1, prodrug before cleavage, read-out: Ki(nM) at A1 Before Cleavage.
Where [4] appears, read: Table 1, liberated product, read-out: Ki(nM) at A1 After Cleavage.

Structures can show the parent of a compound that is named as a salt. Where two headings read alike, the source gives them in different places.

T1 sequence (P29274 whole entry): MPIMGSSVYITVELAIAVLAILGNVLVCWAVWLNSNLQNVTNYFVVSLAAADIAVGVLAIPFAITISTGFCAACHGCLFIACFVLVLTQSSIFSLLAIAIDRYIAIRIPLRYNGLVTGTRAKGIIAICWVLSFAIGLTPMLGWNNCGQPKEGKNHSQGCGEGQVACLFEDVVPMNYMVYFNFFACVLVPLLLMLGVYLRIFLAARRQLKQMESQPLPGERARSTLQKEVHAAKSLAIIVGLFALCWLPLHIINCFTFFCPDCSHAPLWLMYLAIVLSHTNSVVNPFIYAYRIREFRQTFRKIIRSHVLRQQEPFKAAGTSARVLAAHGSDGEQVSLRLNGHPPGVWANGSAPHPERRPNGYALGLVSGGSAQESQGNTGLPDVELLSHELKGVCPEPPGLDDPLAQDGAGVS

As for `Cn1c(=O)c2[nH]c(-c3ccccc3)nc2n(C)c1=O` [Compound 51a], the Kb at A2 receptor (setting [1]) worked out at 1900 nM.

With `CCn1c(=O)c2[nH]c(-c3ccc(OCC(=O)Nc4ccc(C)cc4)cc3)nc2n(CC)c1=O` [Compound 57b], the Ki at A1 receptor (setting [2]) turned out to be 9.3 nM. Besides, the Kb on A2 receptor (setting [1]) was 100 nM. Also, the “A2 potency / affinity” value at A2 receptor (human platelets) was “not as potent at A2 -receptors as expected”.

Turning to `CCn1c(=O)c2[nH]c(-c3ccc(OCC(=O)NCCNC(=O)[C@@H](CCCCNC(=O)OCc4ccccc4)NC(=O)OC(C)(C)C)cc3)nc2n(CC)c1=O` [Compound 60b], on A1 receptor (setting [2]), the inhibitory constant (Ki) worked out at 180 nM. The antagonist dissociation constant (Kb) at A2 receptor (setting [1]) was found to be 230 nM. Regarding `CCCn1c(=O)c2[nH]c(-c3ccc(OCC(=O)NCCNC(=O)[C@@H](NC(=O)[C@@H](N)Cc4ccc(O)cc4)C(C)C)cc3)nc2n(CCC)c1=O` [Compound 26], at A1 adenosine receptors, the Ki was 3 nM.

Take `CCn1c(=O)c2[nH]c(-c3ccc(OCC(=O)Nc4ccc(CC(=O)OC)cc4)cc3)nc2n(CC)c1=O` [Compound 58b, 8-[4-[[[[(4-Carboxymethyl)anilino]carbonyl]methyl]oxy]-phenyl]-1,3-diethylxanthine Methyl Ester]: the Ki at A1 receptor (setting [2]) turned out to be 58 nM. Further, at A2 receptor (setting [1]), the Kb came out at 210 nM. In the case of `CCn1c(=O)c2[nH]c(-c3ccc(OCC(=O)Nc4ccc(CC(=O)NCCN)cc4)cc3)nc2n(CC)c1=O` [Compound 59b], on A1 receptor (setting [2]), the Ki came out at 25 nM. In addition, the Kb on A2 receptor (setting [1]) was 28 nM. In the case of `CCCn1c(=O)c2[nH]c(-c3ccc(OCC(=O)NCCNC(=O)[C@H](CC(C)C)NC(C)=O)cc3)nc2n(CCC)c1=O` [AcLeuXAC], the Ki at A1 adenosine receptors (Table 2, read-out: Ki (A1(nM))) was found to be 20 nM. Still for that read-out and setting: to `CCCCCCCCCCCCCCCCCC(=O)NCCNC(=O)Cc1ccc(NC(=O)Cc2ccc(Nc3ncnc4c3ncn4[C@@H]3O[C@H](CO)[C@@H](O)[C@H]3O)cc2)cc1` [N-stearoyl-ADAC, Stearoyl-ADAC] belongs 1 nM. As for `CCn1c(=O)c2[nH]c(-c3ccc(OCC(=O)N(C)CCN(C)C)cc3)nc2n(CC)c1=O` [tri-methyl substition of 56b], the Ki at A1 receptor (read-out: Ki (A1-potency)) turned out to be 1.5 nM.

As to `CCCn1c(=O)c2[nH]c(-c3ccc(OCC(=O)NCCNC(=O)[C@H](CC(=O)OCc4ccccc4)NC(=O)OC(C)(C)C)cc3)nc2n(CCC)c1=O` [BocAsp(OBzl)XAC], the Ki at A1 adenosine receptors (setting [3]) is 150 nM; on A1 adenosine receptors (Table 2, read-out: Ki (A1(nM))) it was 150 nM.

In the case of `CCOC(=O)COc1ccc(-c2nc3c([nH]2)c(=O)n(CC)c(=O)n3CC)cc1` [Compound 53b], the Ki on A1 receptor (setting [2]) stood at 140 nM. Further, at A2 receptor (setting [1]), the Kb came to 170 nM. `CCCn1c(=O)c2nc(-c3ccc(OCC(=O)NCCN)cc3O)[nH]c2n(CCC)c1=O` [2-hydroxyl analog of XAC]: the Ki at A1 receptor (read-out: Ki at central A1-receptors) was 2.3 nM. On A2 receptor (read-out: Kb for the reversal of NECA-stimulated adenylate cyclase activity in human platelets), the antagonist equilibrium constant (Kb) is 140 nM. As for `CCCn1c(=O)c2[nH]c(-c3ccc(OCC(=O)NCCNC(=O)[C@H](N)Cc4ccc(N)c(I)c4)cc3)nc2n(CCC)c1=O` [TFA.HD(p-NH2 -m-I)PheXAC], on A1 adenosine receptors (Table 2, read-out: Ki (A1(nM))), the Ki was 4 nM. Still for that read-out and setting: next, `CCCn1c(=O)c2[nH]c(-c3ccc(OCC(=O)NCCNC(=O)CNC(=O)CNC(=O)OCc4ccccc4)cc3)nc2n(CCC)c1=O` [CbzGlyGlyXAC]: 3.1 nM. `CCCn1c(=O)c2[nH]c(-c3ccccc3)nc2n(CCC)c1=O` [Compound 51c, 1,3-dipropyl-8-phenylxanthine]: the Ki at A1 receptor (setting [2]) stood at 13 nM.

As for `CCCn1c(=O)c2[nH]c(-c3ccc(OCC(=O)NCCNC(=O)OCc4ccccc4)cc3)nc2n(CCC)c1=O` [NCbzXAC], at A1 adenosine receptors (Table 2, read-out: Ki (A1(nM))), the inhibition constant Ki stood at 8 nM. Regarding `CCCn1c(=O)c2[nH]c(-c3ccc(OCC(=O)NCCNC(=O)[C@@H](NC(=O)[C@H](Cc4ccc(OC(C)=O)cc4)NC(C)=O)C(C)C)cc3)nc2n(CCC)c1=O` [AcTyr(OAc)ValXAC], the Ki on A1 adenosine receptors (setting [3]) came to 5 nM; at A1 adenosine receptors (Table 2, read-out: Ki (A1(nM))) it was 5 nM. As for `CCCn1c(=O)c2[nH]c(-c3ccc(OCC(=O)NCCNC(=O)CNC(=O)CNC(=O)CNC(=O)OCc4ccccc4)cc3)nc2n(CCC)c1=O` [CbzGlyGlyGlyXAC], on A1 adenosine receptors (Table 2, read-out: Ki (A1(nM))), the Ki stood at 10 nM. For the compound `CCCn1c(=O)c2[nH]c(-c3ccc(OCC(=O)NCCNC(=O)[C@H](CC(=O)O)NC(=O)OC(C)(C)C)cc3)nc2n(CCC)c1=O` [BocAspXAC], the Ki at A1 adenosine receptors (Table 2, read-out: Ki (A1(nM))) came out at 30 nM. Consider `CCCn1c(=O)c2[nH]c(-c3ccc(OCC(=O)NCCNC(=O)CNC(=O)CN)cc3)nc2n(CCC)c1=O` [Compound 20], for which the Ki at A1 adenosine receptors (Table 2, read-out: Ki (A1(nM))) came out at 3.6 nM.

With `CCCn1c(=O)c2[nH]c(-c3ccc(OCC(=O)NCCNC(=O)[C@H](N)Cc4ccc(N)cc4)cc3)nc2n(CCC)c1=O` [TFA.HD(p-NH2)PheXAC], the Ki on A1 adenosine receptors (Table 2, read-out: Ki (A1(nM))) turned out to be 2.3 nM.

Take `CCCCC/C=C\C/C=C\CCCCCCCC(=O)NCCNC(=O)Cc1ccc(NC(=O)Cc2ccc(Nc3ncnc4c3ncn4[C@@H]3O[C@H](CO)[C@@H](O)[C@H]3O)cc2)cc1` [N-linoleyl-ADAC]: on A1 adenosine receptors (Table 2, read-out: Ki (A1(nM))), the Ki was determined as 0.5 nM. Take `CCn1c(=O)c2[nH]c(-c3ccc(OCC(=O)OC(C)C)cc3)nc2n(CC)c1=O` [Compound 54b, 8-[4-[(Carboxymethyl)oxy]phenyl]-1,3-diethylxanthine 2-Propyl Ester]: the Ki at A1 receptor (setting [2]) turned out to be 90 nM. Further, the Kb on A2 receptor (setting [1]) is 73 nM. Take `CCCCCCCCCCCCCC(=O)OCC(COC(=O)CCCCCCCCCCCCC)OC(=O)COc1ccc(-c2nc3c([nH]2)c(=O)n(CCC)c(=O)n3CCC)cc1` [1,3-dimyristin-(2-XCC), 1,3-Dimyristin-2-XCC]: the Ki is 104 nM at A1 adenosine receptors (setting [3]) and 104 ± 7.7 nM on A1 adenosine receptors (Table 2, read-out: Ki (A1(nM))). On to `CCCn1c(=O)c2[nH]c(-c3ccc(OCC(=O)NCCO)cc3)nc2n(CCC)c1=O` [Compound 39], for which the Ki came out at 12 nM at A1 adenosine receptors (setting [4]) and 13 nM on A1 adenosine receptors (Table 2, read-out: Ki (A1(nM))).

Turning to `CCNC(=O)COc1ccc(-c2nc3c([nH]2)c(=O)n(CC)c(=O)n3CC)cc1` [Compound 55b], the Ki at A1 receptor (setting [2]) was found to be 57 nM. Also, the Kb at A2 receptor (setting [1]) is 48 nM.

In the case of `CCCn1c(=O)c2[nH]c(-c3ccc(OCC(=O)NCCNC(=O)CNC(=O)CNC(=O)CN)cc3)nc2n(CCC)c1=O` [HBr.HGlyGlyGlyXAC], at A1 adenosine receptors (Table 2, read-out: Ki (A1(nM))), the Ki is 10 nM. Regarding `CCCn1c(=O)c2[nH]c(-c3ccc(OCC(=O)NCCNC(=O)[C@@H](Cc4ccc([N+](=O)[O-])cc4)NC(=O)OC(C)(C)C)cc3)nc2n(CCC)c1=O` [BocD(p-NO2)PheXAC], the Ki on A1 adenosine receptors (Table 2, read-out: Ki (A1(nM))) came out at 89 nM.

`CCCn1c(=O)c2[nH]c(-c3ccc(OCC(=O)NCCNC(=O)CNC(=O)[C@H](Cc4ccc(OC(C)=O)cc4)NC(C)=O)cc3)nc2n(CCC)c1=O` [AcTyr(OAc)GlyXAC]: at A1 adenosine receptors (Table 2, read-out: Ki (A1(nM))), the Ki amounted to 3.9 nM. Turning to `CCCn1c(=O)c2[nH]c(-c3ccc(OCC(=O)NCCNC(=O)c4ccc[n+](C)c4)cc3)nc2n(CCC)c1=O` [Compound 43], the inhibition constant Ki at A1 adenosine receptors (setting [4]) amounted to 10 nM; at A1 adenosine receptors (setting [3]) it was 10 nM; at A1 adenosine receptors (Table 2, read-out: Ki (A1(nM))), 40 nM. Regarding `CCn1c(=O)c2[nH]c(-c3ccccc3)nc2n(CC)c1=O` [Compound 51b], at A2 receptor (setting [1]), the antagonist dissociation constant (Kb) worked out at 210 nM.

Turning to `CCCn1c(=O)c2[nH]c(-c3ccc(OCC(=O)NCCNC(=O)[C@@H](N)C(C)C)cc3)nc2n(CCC)c1=O` [HValXAC], at A1 adenosine receptors (setting [4]), the inhibitory constant (Ki) is 3 nM.

Turning to `CCCn1c(=O)c2[nH]c(-c3ccc(OCC(=O)NCCNC(=O)CC[C@H](NC(=O)OC(C)(C)C)C(=O)OCc4ccccc4)cc3)nc2n(CCC)c1=O` [BocGlu(XAC)OBzl, Boc-glutamyl(gamma-XAC)-alpha-benzyl ester], the Ki on A1 adenosine receptors (Table 2, read-out: Ki (A1(nM))) worked out at 18 nM. In the case of `Cc1ccc(NC(=O)COc2ccc(-c3nc4c([nH]3)c(=O)n(C)c(=O)n4C)cc2)cc1` [Compound 57a], the Ki on A1 receptor (setting [2]) was found to be 27 nM. The compound `CCCn1c(=O)c2[nH]c(-c3ccc(OCC(=O)NCCNC(=O)CNC(=O)[C@@H](N)Cc4ccc(O)cc4)cc3)nc2n(CCC)c1=O` [Compound 22] returned a Ki at A1 adenosine receptors of 5.3 nM. `CCCn1c(=O)c2[nH]c(-c3ccc(OCC(=O)NCCNC(=O)CN)cc3)nc2n(CCC)c1=O` [HGlyXAC]: the Ki on A1 adenosine receptors (setting [4]) came to 2.1 nM.

These data come from US4968672A, “Adenosine receptor prodrugs” (priority 1987, dated 1990).
